Data as given in patent publication US12622910B2, “Inhibitors of Bruton's tyrosine kinase and methods of their use” (Janssen Pharmaceutica NV, priority 2021, dated 2026).

What was measured:
human IL-10 = experiment: Circulating human IL-10 in serum of NSG mice with OCI-LY10 tumors; type: in vivo
From the text: FIG. 18 depicts circulating human IL-10 cytokine serum levels of mice treated with the compound of Formula (III). IL-10 cytokine levels are graphed as % normalized to vehicle control IL-10 levels ±SEM. Female NSG mice were implanted SC with OCI-LY10 cells on the right flank on Day 0. After tumors were established 39 days post implantation, mice were randomized into experimental groups and dosed orally with a single dose (n=5/dose level/time point). Serum samples were collected 2, 4, 8, 12, 16 and 24 hours after compound administration.
In Vivo Efficacy in ABC-DLBCL Xenograft and PDX Mouse Models of Lymphoma-To evaluate the effect of the compound of Formula (III) on NFκB signaling in vivo, we analyzed circulating human IL-10 levels in serum of NSG mice implanted with OCI-LY10 DLBCL tumors treated with 0, 1, 3, 10, 30 and 100 mg/kg compound of Formula (III) at 2, 4, 8, 12, 16 and 24 hours after single dose administration. Human IL-10 levels dropped to around 50% of vehicle control 2 hours after dosing, lowering even further after 4 hours to below 20%, 10% and 5% of vehicle control IL-10 levels in 10 mg/kg, 30 mg/kg and 100 mg/kg compound of Formula (III) treatment groups, respectively, and remaining low up to 12 hours. Some rebound to 23% of vehicle control levels for 30 mg/kg and 100 mg/kg and to 39% for the 10 mg/kg dosing group are observed 16 hours after compound administration, while IL-10 levels normalize after 24 hours (FIG. 18).

beta 1 (h) = beta 1 (h) (Homo sapiens, UniProt P08588); experiment: Receptor panel, Study 1; type: binding
Sequence of beta 1 (h) (P08588 whole entry): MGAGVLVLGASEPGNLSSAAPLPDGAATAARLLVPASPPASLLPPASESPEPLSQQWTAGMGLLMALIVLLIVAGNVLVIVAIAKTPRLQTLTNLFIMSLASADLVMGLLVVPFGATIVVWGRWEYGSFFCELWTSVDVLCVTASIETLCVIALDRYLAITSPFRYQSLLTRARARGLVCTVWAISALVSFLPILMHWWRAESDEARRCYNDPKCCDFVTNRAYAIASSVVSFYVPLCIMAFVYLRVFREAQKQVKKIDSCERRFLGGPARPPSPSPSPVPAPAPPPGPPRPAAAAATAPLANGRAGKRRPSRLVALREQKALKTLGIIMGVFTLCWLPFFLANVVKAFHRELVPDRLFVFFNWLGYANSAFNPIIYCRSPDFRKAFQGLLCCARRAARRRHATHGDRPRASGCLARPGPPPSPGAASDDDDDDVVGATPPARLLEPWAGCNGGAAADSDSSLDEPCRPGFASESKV
Method: (§1) RESULTS AND DISCUSSION—Selectivity—The compound of Formula (III) was evaluated in three selectivity panels to assess the potential for off-target pharmacology (Table 8). […] The kinase off-target profile of The compound of Formula (III) was assessed in a full human wild-type panel using radiometric kinase activity assays (KinaseProfiler™ and IC50Profiler™; Eurofins Scientific) (Table 9; FIG. 23). The compound of Formula (III) inhibited 4/278 kinases >50% at 1 micromolar, identifying BTK and the three other kinases having analogous Cys residues with the potential for covalent inhibition (BMX, TEC, BLK). […]. The cellular kinase selectivity of The compound of Formula (III) was established in native Ramos B cell kinome assays (KiNativ™; ActivX) confirmed BTK as the primary target with inhibition of BLK and TEC inhibition detected (Table 10).

BZD (central) = experiment: Receptor panel, Study 1; type: binding
Method: as §1

5-HT Transporter (h) = 5-HT Transporter (h) (Homo sapiens, UniProt P31645); experiment: Receptor panel, Study 1; type: binding
Sequence of 5-HT Transporter (h) (P31645 whole entry): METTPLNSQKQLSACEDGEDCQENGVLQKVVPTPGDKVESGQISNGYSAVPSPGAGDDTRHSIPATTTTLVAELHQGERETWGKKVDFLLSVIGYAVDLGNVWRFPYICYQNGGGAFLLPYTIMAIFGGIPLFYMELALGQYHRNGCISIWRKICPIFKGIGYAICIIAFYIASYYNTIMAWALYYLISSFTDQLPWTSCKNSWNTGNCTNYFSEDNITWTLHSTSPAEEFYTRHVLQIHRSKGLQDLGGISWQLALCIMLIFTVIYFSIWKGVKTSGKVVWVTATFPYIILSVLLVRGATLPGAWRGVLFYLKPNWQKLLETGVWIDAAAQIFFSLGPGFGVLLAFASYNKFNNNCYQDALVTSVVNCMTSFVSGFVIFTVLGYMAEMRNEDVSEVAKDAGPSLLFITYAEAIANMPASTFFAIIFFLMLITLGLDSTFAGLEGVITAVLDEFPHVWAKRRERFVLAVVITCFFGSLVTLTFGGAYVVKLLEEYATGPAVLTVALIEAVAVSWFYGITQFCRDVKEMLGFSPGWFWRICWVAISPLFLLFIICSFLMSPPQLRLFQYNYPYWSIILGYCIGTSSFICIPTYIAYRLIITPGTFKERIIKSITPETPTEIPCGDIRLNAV
Method: as §1

DA transporter (h) = DA transporter (h) (Homo sapiens, UniProt Q01959); experiment: Receptor panel, Study 1; type: binding
Sequence of DA transporter (h) (Q01959 whole entry): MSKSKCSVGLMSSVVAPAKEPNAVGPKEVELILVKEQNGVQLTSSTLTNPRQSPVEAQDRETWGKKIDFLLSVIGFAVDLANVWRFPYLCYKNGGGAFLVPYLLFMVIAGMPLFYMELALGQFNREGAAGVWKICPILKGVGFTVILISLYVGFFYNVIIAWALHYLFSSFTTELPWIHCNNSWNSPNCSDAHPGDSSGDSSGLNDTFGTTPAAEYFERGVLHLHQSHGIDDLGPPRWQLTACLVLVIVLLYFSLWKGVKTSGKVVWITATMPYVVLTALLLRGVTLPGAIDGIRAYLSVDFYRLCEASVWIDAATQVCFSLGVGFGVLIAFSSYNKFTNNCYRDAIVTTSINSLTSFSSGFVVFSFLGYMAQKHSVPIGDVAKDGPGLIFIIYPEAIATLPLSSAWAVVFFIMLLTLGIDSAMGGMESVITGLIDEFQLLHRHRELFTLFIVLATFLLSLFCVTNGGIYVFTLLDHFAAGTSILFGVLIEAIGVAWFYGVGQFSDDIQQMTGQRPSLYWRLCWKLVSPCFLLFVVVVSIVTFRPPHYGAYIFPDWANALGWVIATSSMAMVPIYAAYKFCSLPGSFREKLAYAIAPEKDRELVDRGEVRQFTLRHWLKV
Method: as §1

NE transporter (h) = NE transporter (h) (Homo sapiens, UniProt P23975); experiment: Receptor panel, Study 1; type: binding
Sequence of NE transporter (h) (P23975 whole entry): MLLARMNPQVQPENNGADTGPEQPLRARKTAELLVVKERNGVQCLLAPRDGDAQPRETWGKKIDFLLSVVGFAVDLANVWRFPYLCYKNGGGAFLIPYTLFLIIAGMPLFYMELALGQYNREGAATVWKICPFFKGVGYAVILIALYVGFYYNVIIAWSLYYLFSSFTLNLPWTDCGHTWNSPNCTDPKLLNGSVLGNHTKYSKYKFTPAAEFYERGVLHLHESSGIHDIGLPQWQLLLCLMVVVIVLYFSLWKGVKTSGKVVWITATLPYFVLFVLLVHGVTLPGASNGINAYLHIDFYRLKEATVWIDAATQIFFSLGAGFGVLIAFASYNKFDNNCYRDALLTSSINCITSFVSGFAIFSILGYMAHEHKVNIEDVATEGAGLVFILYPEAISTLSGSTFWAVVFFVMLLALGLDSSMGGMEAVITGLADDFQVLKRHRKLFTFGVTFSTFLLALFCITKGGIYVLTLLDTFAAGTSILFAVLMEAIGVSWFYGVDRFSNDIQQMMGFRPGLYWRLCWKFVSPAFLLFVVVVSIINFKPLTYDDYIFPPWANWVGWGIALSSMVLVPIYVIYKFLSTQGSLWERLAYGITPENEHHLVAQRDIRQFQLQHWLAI
Method: as §1

Ca^2+ channel = experiment: Receptor panel, Study 1; type: binding
Method: as §1

Cl^− channel = experiment: Receptor panel, Study 1; type: binding
Method: as §1

Na^+ channel (site 2) = experiment: Receptor panel, Study 1; type: binding
Method: as §1

[1] = target: 278 human wild type kinases; experiment: Full human wild-type kinase panel (KinaseProfiler); type: biochemical; details: 1 micromolar
Method: as §1

BTK = BTK (Homo sapiens, UniProt Q06187); experiment: Phase 1 study, BTK occupancy in PBMCs; type: in vivo; parameters: measuring free BTK levels in peripheral blood mononuclear cells (PBMCs) and calculating % BTKO; endogenous in cells; host or cells: human PBMCs, lysed after isolation from whole blood; details: for BTKO at 24 hr, ss, median observed / Calculated Average BTKO, observed / Max BTKO at ss, median observed: Day 10 oral solution; for mean BTKO: all MAD dose groups
Sequence of BTK (Q06187 whole entry): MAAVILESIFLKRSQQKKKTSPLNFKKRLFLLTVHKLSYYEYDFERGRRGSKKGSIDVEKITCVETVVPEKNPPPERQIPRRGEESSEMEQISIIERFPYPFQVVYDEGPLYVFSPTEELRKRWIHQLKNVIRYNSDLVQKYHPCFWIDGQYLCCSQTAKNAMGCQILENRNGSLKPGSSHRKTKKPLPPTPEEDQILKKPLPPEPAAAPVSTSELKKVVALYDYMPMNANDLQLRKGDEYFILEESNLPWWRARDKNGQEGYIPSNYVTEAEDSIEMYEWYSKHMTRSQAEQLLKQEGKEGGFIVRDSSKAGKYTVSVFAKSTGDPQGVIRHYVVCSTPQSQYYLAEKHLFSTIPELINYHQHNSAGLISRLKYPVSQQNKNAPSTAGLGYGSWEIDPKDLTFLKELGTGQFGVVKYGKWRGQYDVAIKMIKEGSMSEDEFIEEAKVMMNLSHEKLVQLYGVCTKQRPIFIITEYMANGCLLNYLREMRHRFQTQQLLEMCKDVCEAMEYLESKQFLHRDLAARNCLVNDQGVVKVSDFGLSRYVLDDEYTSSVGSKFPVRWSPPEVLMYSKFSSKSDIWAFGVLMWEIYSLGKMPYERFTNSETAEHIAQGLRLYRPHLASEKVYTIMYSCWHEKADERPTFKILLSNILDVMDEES
Method: Pharmacodynamics (BTKO)—In Part 1, venous blood samples (8 mL) were collected predose and at 1, 2, 4, 8, 12, 24, 48, and 72 hours post-dose for measuring free BTK levels in peripheral blood mononuclear cells (PBMCs) and calculating % BTKO. In Part 2, blood samples were taken on day 1 predose and at 2, 4, and 8 hours after dosing; days 2-10 predose and 4 hours post-dose; and at 24, 48, and 72 hours after the last dose and at the follow-up visit.
After PBMCs were isolated from whole blood, they were lysed and prepared for the measurement of BTK occupancy using a custom streptavidin-coated Meso Scale Discovery (MSD) immunoassay. Percent occupancy was calculated as 100%×([Baseline free BTK−Free BTK with treatment]/Baseline Free BTK).

C=CC(=O)N[C@H]1CCC[C@H]1NC(=O)c1sc2nccc3c2c1NC(=O)N3c1cnc(CC(C)C)cc1C (atropisomer, axis not shown) [compound of Formula (III), N-((1R,2S)-2-Acrylamidocyclopentyl)-5-(S)-(6-isobutyl-4-methylpyridin-3-yl)-4-oxo-4,5-dihydro-3H-1-thia-3,5,8-triazaacenaphthylene-2-carboxamide]
human IL-10, % of vehicle control (human IL-10; 10 mg/kg, 4 hours): below 20% | human IL-10, % of vehicle control (human IL-10; 10 mg/kg, 16 hours): 39% | human IL-10, % of vehicle control (human IL-10; 30 mg/kg, 4 hours): < 10% | human IL-10, % of vehicle control (human IL-10; 30 mg/kg, 16 hours): 23% | human IL-10, % of vehicle control (human IL-10; 100 mg/kg, 4 hours): < 5% | human IL-10, % of vehicle control (human IL-10; 100 mg/kg, 16 hours): 23% | human IL-10, % of vehicle control (human IL-10; 2 hours after single oral dose): around 50% | inhibition at 10 µM (beta 1 (h)): < 10% | % Inhibition at 10 μM (BZD (central)): — (no inhibition observed) | inhibition at 10 µM (5-HT Transporter (h)): < 10% | inhibition at 10 µM (DA transporter (h)): < 10% | inhibition at 10 µM (NE transporter (h)): < 10% | % Inhibition at 10 μM (Ca^2+ channel): — (no inhibition observed) | % Inhibition at 10 μM (Cl^− channel): 25.1% | % Inhibition at 10 μM (Na^+ channel (site 2)): — (no inhibition observed) | kinases inhibited >50% [1]: 4/278 | BTKO at 24 hr, ss, median observed (BTK; 36 mg QD): 69.5% | Calculated Average BTKO, observed (BTK; 36 mg QD): 74.2% | Max BTKO at ss, median observed (BTK; 36 mg QD): 78.9% | mean % BTKO (BTK; 36 mg QD, day 1, 4 hours): 34% | mean % BTKO (BTK; 36 mg QD, day 10, 4 hours): 80% | BTKO at 24 hr, ss, median observed (BTK; 100 mg QD): 84.1% | Calculated Average BTKO, observed (BTK; 100 mg QD): 89.1% | Max BTKO at ss, median observed (BTK; 100 mg QD): 94.1% | mean % BTKO (BTK; 100 mg QD, day 1, 4 hours): 61% | mean % BTKO (BTK; 100 mg QD, day 10, 4 hours): 91% | BTKO at 24 hr, ss, median observed (BTK; 200 mg QD): 78.9% | Calculated Average BTKO, observed (BTK; 200 mg QD): 88.8% | Max BTKO at ss, median observed (BTK; 200 mg QD): 98.8% | mean % BTKO (BTK; 200 mg QD, day 1, 4 hours): 94% | mean % BTKO (BTK; 200 mg QD, day 10, 4 hours): 98% | mean % BTKO lower, capsule vs solution (BTK; 4 hours post-dose): ≈ 37% | mean % BTKO lower, capsule vs solution (BTK; 24 hours post-dose): ≈ 30% | mean % BTKO at follow-up visit (7-14 days) (BTK; Part 1, all treatment groups): ≤ 42% | mean % BTKO at follow-up visit (7 to 14 days) (BTK; Part 2, all treatment groups): < 40% | mean BTKO (BTK; 24 hours after Day 10 dose): above 65% | mean BTKO (BTK; 72 hours after Day 10 dose): > 30% | mean % BTKO (BTK; single 36 mg, females, 4 hours): 55% | mean % BTKO (BTK; single 36 mg, males, 4 hours): 39% | peak mean % BTKO (BTK; single 100 mg solution, fed, 8 hours post-dose): 73% | mean % BTKO (BTK; single 100 mg solution, male fasted, 4 hours post-dose): 86% | mean % BTKO (BTK; single 100 mg, females, 4 hours): 81% | mean % BTKO (BTK; single 105 mg capsule, 4 hours): 54% | mean % BTKO (BTK; single 105 mg capsule, 24 hours): 53% | maximum % BTKO (mean) (BTK; single and multiple doses ≥100 mg): ≥ 90% | duration of BTKO (BTK; single doses ≥100 mg): up to 72 hours | % BTKO (BTK; single doses ≥100 mg, male fasted, 4 hours): ~100%
